# USRE38132E1, “Phenylpyrrolidines, phenylimidazolidines,3-phenyl-1,3-oxizolidines and 3-phenyl-1,3-thiazolidines and their use in the treatment of inflammatory disease” (Boehringer Ingelheim Pharmaceuticals, Inc., priority 1997, dated 2003)
# Where two headings read alike, the source gives them in different places.
# How the values were obtained:
# [1] = target: T1, interaction of ICAM-1 with the Leukointegrin CD18/CD11a (LFA-1) (Homo sapiens, UniProt P05107+P20701); assay: Assay to determine inhibition of LFA-1 binding to ICAM-1 (immunopurified LFA-1 on plate-bound sICAM-1, ELISA readout); conditions: values marked e approximated from incomplete dose-response curve
# T1 construct: endogenous in cells; sICAM-1: made in house, secreted from transfected CHO DUX cells
# Excerpt: Assay to Determine Inhibition of LFA-1 Binding to ICAM-1 Purpose of Assay: This assay protocol is designed to study the direct antagonism, by a test compound, of the interaction of the CAM, ICAM-1 with the Leukointegrin CD18/CD11a (LFA-1). […] After collection and neutralization of fractions from the TS2/4 column, samples are pooled and precleared with Protein G agarose. […] Wells are washed 3 times with Diluting Buffer. The bound LFA-1 is detected by the addition of a polyclonal antibody directed against a peptide corresponding to the CD18 cytoplasmic tail in a 1:100 dilution with Diluting Buffer and 1% BSA and allowed to incubate for 45 min at 37° C. Wells are washed 3 times with Diluting Buffer and the bound polyclonal antibody is detected by the addition of a 1:4000 dilution of horse radish peroxidase conjugated to goat immunoglobulin directed against rabbit immunoglobulin. […] The lack of the addition of LFA-1 to the binding assay is used as a background control for all samples. A dose-response curve is obtained for all test compounds. Results of these tests are reported as Kd's in μM.
# [2] = tested on: cell bound form of LFA-1 (CD18, CD11a) with ICAM-1, SKW3 cells; assay: Inhibition of SKW3 cell binding to ICAM-1 (PMA-stimulated); type: cell-based, human; conditions: Homo sapiens, SKW3, values marked c: no inhibition observed up to highest dose; read-out: Assay to Detect SKW3 Cells Binding to ICAM IC50
# Outline: (§1)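 Compound-treated, PMA-stimulated human T-cell line SKW3 (50 μg/mL PMA final) allowed to adhere for 2 h at 37° C to wells coated with sICAM-1 at 40 μg/mL or fibronectin at 100 μg/mL. After gentle RPMI wash, 50% inhibition concentration or range reported in μM.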
# [3] = tested on: cell bound fibronectin receptor (VLA4) with fibronectin, SKW3 cells; assay: Inhibition of SKW3 cell binding to fibronectin (selectivity counter-assay); type: cell-based, human; conditions: for Assay to Detect SKW3 Cells Binding to FIBRONECTIN IC50: values marked c: no inhibition observed up to highest dose; for IC50: Homo sapiens, SKW3, values marked c: no inhibition observed up to highest dose, read-out: Assay to Detect SKW3 Cells Binding to FIBRONECTIN IC50
# Outline: as §1
# [4] = tested on: LFA-1 dependent aggregation of JY cells; assay: JY cell homotypic aggregation assay (PMA-stimulated); type: cell-based, human
# Excerpt: This aggregation can be enhanced by the addition of phorbol esters. […] Thus, the extent of LFA-1-dependent binding may be determined by assessing the extent of spontaneous or phorbol ester-dependent aggregate formation.
# An agent which interferes with LFA-1 -dependent aggregation can be identified through the use of an assay capable of determining whether the agent interferes with either spontaneous, or phorbol ester-dependent aggregation of Epstein-Barr virus transformed cells. It is preferable to employ cells of the JY cell line (Terhost, L; et aL, Proc. Natl. Acad. Sci. USA, 1976, 73, 910) for the homotypic aggregation assay. This assay, capable of measuring LFA-1 dependent aggregation, may be employed to identify agents which act as antagonists to the LFA-1 dependent aggregation. Such agents may act by impairing the ability of either LFA-1 or ICAM-1 to mediate aggregation. Thus, agents may be examined to directly determine if they are antagonists of LFA-1 aggregation.
# Description of Assay Protocol:
# JY cells are cultured in RPMI 1640 culture medium supplemented with 10% fetal calf serum and 50 μg/mL gentamycin. The cells are cultured at 37° C. in an atmosphere of 5% CO2 at a relative humidity of 95%. JY cells used in this assay are washed two times with RPMI 1640 medium containing 5 mM HEPES buffer and resuspended to a concentration of 2·10^6 cells/mL. Added to flat-bottomed, 96-well microtiter plates are 50 μL of test compound diluted in complete medium, 50 μL of complete medium with or without purified monoclonal antibodies (negative and positive controls for inhibition, respectively), 50 μL of complete medium containing 200 ng/mL of the phorbol ester phorbol myristate acetate (PMA) and 100 μL of cells at a concentration of 2·10^6 cells/mL in complete medium. This yields a final concentration of […] PMA and 2·10^5 cells/well. Cells are allowed to settle spontaneously, and the degree of aggregation is scored at various time points. […] This procedure has been described by Rothlein, R. R.; et al., J. Exp. Med. 1986, 163, 1132-1149. This paper also reported that antibody to LFA-1 is capable of inhibiting the formation of aggregates.
# Data are reported as the concentration or concentration range (in μM) at which 50% of binding is inhibited.
# T1 sequence (P20701 26-1170): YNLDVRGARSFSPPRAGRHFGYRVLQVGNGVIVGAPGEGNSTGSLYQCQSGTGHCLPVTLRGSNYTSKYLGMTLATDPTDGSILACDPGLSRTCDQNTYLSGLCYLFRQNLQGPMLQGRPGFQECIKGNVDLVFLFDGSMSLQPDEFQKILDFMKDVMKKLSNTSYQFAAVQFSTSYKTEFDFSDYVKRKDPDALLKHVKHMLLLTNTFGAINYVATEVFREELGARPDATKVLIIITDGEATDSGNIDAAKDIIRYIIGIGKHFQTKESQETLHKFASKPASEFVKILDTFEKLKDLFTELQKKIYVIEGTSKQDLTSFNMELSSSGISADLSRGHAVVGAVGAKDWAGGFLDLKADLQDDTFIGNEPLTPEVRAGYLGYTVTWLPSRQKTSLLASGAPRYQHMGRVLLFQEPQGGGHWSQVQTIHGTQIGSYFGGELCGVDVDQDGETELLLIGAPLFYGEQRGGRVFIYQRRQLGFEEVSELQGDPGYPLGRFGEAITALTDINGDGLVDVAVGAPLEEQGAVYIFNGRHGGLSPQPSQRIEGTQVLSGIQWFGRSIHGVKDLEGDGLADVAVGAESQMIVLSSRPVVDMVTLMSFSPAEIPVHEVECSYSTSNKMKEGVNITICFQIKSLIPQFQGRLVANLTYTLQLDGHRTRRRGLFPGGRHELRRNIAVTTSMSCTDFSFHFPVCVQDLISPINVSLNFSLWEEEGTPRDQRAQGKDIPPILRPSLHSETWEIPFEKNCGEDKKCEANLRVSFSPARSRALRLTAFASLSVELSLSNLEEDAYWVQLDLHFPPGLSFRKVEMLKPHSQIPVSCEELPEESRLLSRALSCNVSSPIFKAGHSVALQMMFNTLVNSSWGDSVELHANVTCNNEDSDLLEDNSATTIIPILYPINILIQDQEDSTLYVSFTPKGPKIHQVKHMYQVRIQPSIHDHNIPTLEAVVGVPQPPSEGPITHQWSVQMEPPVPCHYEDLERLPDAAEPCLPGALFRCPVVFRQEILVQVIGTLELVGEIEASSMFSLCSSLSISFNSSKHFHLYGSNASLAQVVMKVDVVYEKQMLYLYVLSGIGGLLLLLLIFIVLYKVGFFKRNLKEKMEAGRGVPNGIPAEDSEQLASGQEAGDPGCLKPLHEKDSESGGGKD
# T1 sequence (P05107 23-769): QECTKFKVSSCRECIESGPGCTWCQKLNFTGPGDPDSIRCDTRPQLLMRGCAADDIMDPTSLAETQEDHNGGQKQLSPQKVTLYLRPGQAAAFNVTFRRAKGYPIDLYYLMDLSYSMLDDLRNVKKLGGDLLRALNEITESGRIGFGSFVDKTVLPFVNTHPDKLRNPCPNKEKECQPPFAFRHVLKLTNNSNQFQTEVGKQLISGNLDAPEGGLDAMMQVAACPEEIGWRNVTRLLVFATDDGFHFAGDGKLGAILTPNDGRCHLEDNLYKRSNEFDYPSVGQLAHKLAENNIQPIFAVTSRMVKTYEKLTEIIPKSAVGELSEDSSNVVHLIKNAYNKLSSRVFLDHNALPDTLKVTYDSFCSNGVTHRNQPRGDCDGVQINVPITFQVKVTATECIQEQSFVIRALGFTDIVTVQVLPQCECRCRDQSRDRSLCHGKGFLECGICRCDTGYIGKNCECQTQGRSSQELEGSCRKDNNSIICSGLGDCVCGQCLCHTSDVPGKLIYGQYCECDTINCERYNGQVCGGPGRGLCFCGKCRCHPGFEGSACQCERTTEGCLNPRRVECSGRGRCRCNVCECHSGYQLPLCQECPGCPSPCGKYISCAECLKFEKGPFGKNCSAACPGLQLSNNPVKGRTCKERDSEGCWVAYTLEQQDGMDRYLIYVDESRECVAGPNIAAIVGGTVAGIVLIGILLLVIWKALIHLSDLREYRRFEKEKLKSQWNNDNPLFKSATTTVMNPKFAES
SMILES,Kd [1],IC50 [2],Assay to Detect SKW3 Cells Binding to FIBRONECTIN IC50 [3],IC50 ([4]; Homo sapiens),Cellular Toxicity Assay MTT LD50 (SKW3 cells),IC50 [3],IC50 [4]
COCN1C(=O)N(c2cc(Cl)cc(Cl)c2)C(=O)[C@@]1(C)Cc1ccc(Br)cc1 [Example 131],0.2 µM,3 to 5 µM,No inh^c,1.1 µM,>400 µM,–,–
C[C@@]1(Cc2ccc(Br)cc2)C(=O)N(c2cc(Cl)cc(Cl)c2)C(=O)N1C[C@H](O)c1ccccc1 [Example 132],0.22 µM,5 µM,No inh^c,2.4 µM,200 to 400 µM,–,–
C[C@@]1(Cc2ccc(Br)cc2)C(=O)N(c2cc(Cl)cc(Cl)c2)C(=O)N1C[C@@H](O)c1ccccc1 [Example 133],0.15 µM,5 to 10 µM,No inh^c,0.4 µM,>400 µM,–,–
CN1C(=O)N(c2cc(Cl)cc(Cl)c2)C(=O)[C@@]1(C)Cc1ccc([N+](=O)[O-])cc1 [Example 134],0.05 µM,1.5 µM,No inh^c,0.1 µM,>250 µM,–,–
CC(=O)N1C(=O)N(c2cc(Cl)cc(Cl)c2)C(=O)[C@@]1(C)Cc1ccc([N+](=O)[O-])cc1 [Example 135],0.2 µM,25 µM,No inh^c,1.7 µM,>400 µM,–,–
CCCN1C(=O)N(c2cc(Cl)cc(Cl)c2)C(=O)C1(C)Cc1ccc(Br)cc1 (centres unmarked) [Example 137],0.04 µM,1 to 3 µM,No inh^c,0.4 µM,200 to 400 µM,–,–
COC(=O)c1ccc(CC2(C)C(=O)N(c3cc(Cl)cc(Cl)c3)C(=O)N2C)cc1 (centres unmarked) [Example 140],0.11 µM,1.2 µM,–,0.2 µM,180 to 360 µM,> 10 µM,–
CC(C)N1C(=O)N(c2cc(Cl)cc(Cl)c2)C(=O)C1(C)Cc1ccc(Br)cc1 (centres unmarked) [Example 141],0.22 µM,15 µM,–,0.1 µM,300 µM,> 15 µM,–
CN1C(=O)N(c2cc(Cl)cc(Cl)c2)C(=O)C1(C)Cc1cccc(Br)c1 (centres unmarked) [Example 149],0.2 µM,10 µM,–,2.9 µM,170 to 340 µM,> 10 µM,–
CN1C(=O)N(c2cc(Cl)cc(Cl)c2)C(=O)C1(C)Cc1ccc(Cl)cc1 (centres unmarked) [Example 154],0.094 µM,5 to 10 µM,No inh^c,0.4 µM,200 µM,–,–
CN1C(=O)N(c2cc(Cl)c(Cl)c(Cl)c2)C(=O)C1(C)Cc1ccc(Br)cc1 (centres unmarked) [Example 159],0.11 µM,10 to 20 µM,No inh^c,2 µM,50 to 100 µM,–,–
Cc1cccc(C)c1CC1(C)C(=O)N(c2cc(Cl)cc(Cl)c2)C(=O)N1C (centres unmarked) [Example 163],0.16 µM,9 to 19 µM,–,2.4 µM,200 to 400 µM,> 75 µM,–
CN1C(=O)N(c2cc(Cl)cc(Cl)c2)C(=O)C1(C)Cc1cc(Br)cc(Br)c1 (centres unmarked) [Example 164],0.28 µM,> 100 µM,No inh^c,25 µM,100 to 200 µM,–,–
CN1C(=O)N(c2cc(Cl)cc(Cl)c2)C(=O)C1(C)Cc1ccc(C(F)(F)F)cc1 (centres unmarked) [Example 171],0.18 µM,102 µM,No inh^c,0.2 µM,100 to 200 µM,–,–
CCC1(Cc2ccc(Br)cc2)C(=O)N(c2cc(Cl)cc(Cl)c2)C(=O)N1C (centres unmarked) [Example 172],0.17 µM,1.8 µM,No inh^c,0.7 µM,165 µM,–,–
CCCC1(Cc2ccc(Br)cc2)C(=O)N(c2cc(Cl)cc(Cl)c2)C(=O)N1C (centres unmarked) [Example 173],0.17 µM,4.8 µM,No inh^c,2.2 µM,200 to 400 µM,–,–
CC(C)(C)N1C(=O)N(c2cc(Cl)cc(Cl)c2)C(=O)C1(C)Cc1ccc(Br)cc1 (centres unmarked) [Example 177],0.25 µM,7 to 14 µM,No inh^c,3.7 µM,155 to 310 µM,–,–
CC1(Cc2ccc(Br)cc2)OC(=O)N(c2cc(Cl)cc(Cl)c2)C1=O (centres unmarked) [Example 180],0.19 µM,1.5 to 3 µM,No inh^c,1.3 µM,200 to 400 µM,–,–
C[C@]1(Cc2ccc(C(=O)c3ccccc3)cc2)NC(=O)N(c2cc(Cl)cc(Cl)c2)C1=O [Example 184],0.37 µM,0.8 to 1.5 µM,No inh^c,–,50 to 100 µM,–,0.3 µM
CN1C(=O)N(c2cc(Cl)cc(Cl)c2)C(=O)[C@@]1(C)Cc1ccc(-c2ccccn2)cc1 [Example 187],0.29 µM,0.6 µM,No inh^c,0.6 µM,171 µM,–,–
CN1C(=O)N(c2cc(Cl)cc(Cl)c2)C(=O)[C@@]1(C)Cc1ccc(-c2cccnc2)cc1 [Example 188],0.04 µM,0.3 to 1 µM,No inh^c,0.03 µM,56 to 112 µM,–,–
C[C@]1(Cc2ccc(-c3cccnc3)cc2)NC(=O)N(c2cc(Cl)cc(Cl)c2)C1=O [Example 190],0.43 µM,6 to 12 µM,No inh^c,1.4 µM,50 to 100 µM,–,–
